In PubChem BioAssay (NCI):
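Tested at 5 concentrations; 48 h exposure; 96-well plates; endpoints linearly interpolated, else capped at highest concentration. GI50 = concentration required for 50% inhibition of growth. TGI marks complete inhibition of growth.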

How the values were obtained:
Test in all cases: growth of human tumour cells (NCI), 48 h
OVCAR-3 ovarian = system: OVCAR-3 ovarian
U251 CNS = system: U251 CNS
SN12C renal = system: SN12C renal
OVCAR-4 ovarian = system: OVCAR-4 ovarian
SK-MEL-5 melanoma = system: SK-MEL-5 melanoma
NCI-H460 lung = system: NCI-H460 lung
NCI-H226 lung = system: NCI-H226 lung
UACC-62 melanoma = system: UACC-62 melanoma
HT29 colon = system: HT29 colon
A498 renal = system: A498 renal

| Compound | TGI (OVCAR-3 ovarian) [µM] | TGI (U251 CNS) [µM] | TGI (SN12C renal) [µM] | TGI (OVCAR-4 ovarian) [µM] | TGI (SK-MEL-5 melanoma) [µM] | TGI (NCI-H460 lung) [µM] | TGI (NCI-H226 lung) [µM] | TGI (UACC-62 melanoma) [µM] | TGI (HT29 colon) [µM] | GI50 (OVCAR-3 ovarian) [µM] | GI50 (U251 CNS) [µM] | GI50 (OVCAR-4 ovarian) [µM] | GI50 (A498 renal) [µM] | TGI (A498 renal) [µM] | GI50 (SK-MEL-5 melanoma) [µM] | GI50 (NCI-H460 lung) [µM] | GI50 (NCI-H226 lung) [µM] | GI50 (UACC-62 melanoma) [µM] | GI50 (HT29 colon) [µM] | GI50 (SN12C renal) [µM] |
| --- | --- | --- | --- | --- | --- | --- | --- | --- | --- | --- | --- | --- | --- | --- | --- | --- | --- | --- | --- | --- |
| OCC1OC2c3ccccc3COC2C1OCc1ccccc1 (stereo not given) | > 100 | > 100 | > 100 | > 100 | > 100 | > 100 | > 100 | > 100 | > 100 |  |  |  |  |  |  |  |  |  |  |  |
| O=C([O][Hg][c]1ccccc1)c1ccccc1 | 0.843 | 2.8 |  | 6.22 | 3.06 | 9.27 | 6.18 | 4.18 | 9.82 | 0.298 | 1.38 | 1.36 | 1.85 | 7.33 | 1.53 | 2.6 | 2.41 | 1.55 | 2.94 |  |
| CC(=O)OCC12CN(C#N)C3C4COC(CC41)C1(C(=O)N(C)c4ccccc41)C32 (stereo not given) | 14.7 | > 100 | 73.1 | 49.6 | 86.3 | 94.5 | 49.5 | 52.2 | > 100 |  |  |  |  |  |  |  |  |  |  |  |
| CC1(C)NC(=O)N(CCCCCCN2C(=O)NC(C)(C)C2=O)C1=O |  | > 100 | > 100 | > 100 |  | > 100 | > 100 | > 100 | > 100 |  |  |  |  | > 100 |  |  |  |  |  |  |
| COc1ccc(-c2coc3cc(O)ccc3c2=O)cc1 | > 100 | > 100 | > 100 |  | > 100 | > 100 | > 100 | > 100 | > 100 |  |  |  |  | > 100 |  |  |  |  |  |  |
| COC(=O)Cc1c([C@@]2(C)CCCC(C)(C)C2)ccc2c1C(=O)OC2 | 20.7 | 29.7 | 23 |  | 25.6 | 33.3 | 28.4 | 31.4 | 28.4 |  |  |  |  | 41.8 |  |  |  |  |  |  |
| CN(C)C1CCN(Cc2ccc(NC(=O)c3cncc(C#Cc4cnc(N)c5ncccc45)c3)cc2C(F)(F)F)CC1 | 17.6 | 2.22 | 18.1 | 9.24 | 12.9 | 2.5 |  | 13.8 | 6.82 | 9.3 | 1.03 | 1.9 | 5.65 | 14.1 | 5.51 | 1.12 |  | 6.09 | 1.3 | 8.94 |
| COC1=CC(c2ccc[nH]2)=N/C1=C\c1[nH]c(C)c(C(=O)CCC(=O)Oc2ccc3c(c2)CCC2C3CC[C@]3(C)[C@@H](O)CC[C@@H]23)c1C (stereo not given in full) | 27.9 | 28.4 | > 100 | > 100 | 2.91 | > 100 | > 100 | 4.62 |  | 2.96 | 2.99 | 5.02 | 1.87 | 8.82 | 1.46 | 3.07 | 4.77 | 1.7 |  | 5.06 |
| O=Cc1cccc2ccc3ccccc3c12 | 40.4 | 58.7 | 88.5 |  | 39.6 | 57.8 | 74.8 | 76 | 54.2 |  |  |  |  | 62.7 |  |  |  |  |  |  |
| COC(=O)c1cc(NC(=O)c2cc(NC(=O)c3cc([N+](=O)[O-])n(C)c3)cn2C)cn1C | > 100 | > 100 | > 100 |  | 59 | > 100 | > 100 | > 100 | 31 | > 100 | 32.7 |  | 84 | > 100 | 5.03 | > 100 | 39.9 | 23.8 | 7.74 | > 100 |
| Cc1ccc(C)c2c1C(=O)N(c1ccc(F)cc1F)C2=O | > 100 | > 100 | > 100 | > 100 |  | > 100 | > 100 | > 100 | > 100 | > 100 | 89.3 | > 100 | > 100 | > 100 |  | > 100 | > 100 | > 100 | > 100 | > 100 |
| O=[N+]([O-])c1cc(-c2nc(=S)[nH][nH]2)ccc1O |  | > 100 | > 100 | > 100 | > 100 | > 100 |  | > 100 | > 100 |  |  |  |  | > 100 |  |  |  |  |  |  |
| COc1ccc2c(c1)[n+]([O-])c(-c1cccc(Cl)c1)c(N)[n+]2[O-] | > 100 | > 100 | > 100 | > 100 | 39.5 | > 100 | > 100 |  | > 100 |  |  |  |  | > 100 |  |  |  |  |  |  |
